Assay results: article PMC5876388 (Scientific Reports, 2018)

Columns and labels:
[1] = Cytotoxicity test, AlamarBlue; conditions: human, HPB-ALL cells
Description: HPB-ALL cells (1 × 10^4 cells per well) were incubated in 96-well black plates at 37 °C for 72 h. Media also contained different concentrations of compound. After incubation, AlamarBlue was added 10 μL per well. After incubation for 4 h, using a fluorescence plate reader, fluorescence was measured and cell viability was determined. Data are presented as the mean with SD from three independent experiments. […] The effect on protein expression was analyzed by Western blotting. β-Actin was used as internal control. (D,E) Relative protein levels of NICD and HES1 analyzed by densitometry. Data are presented as the mean with SD from three independent experiments. *P < 0.05 is considered statistically significant. P values were analyzed by Student’s t test.
HPB-ALL cells (1 × 10^4 cells per well) were incubated in 96-well black plates in 100 μL of RPMI-1640 medium with 10% FBS, Streptomycin (100 μg/mL) and Penicillin (100 unit/mL). Media also contained different concentrations of compound. Cells were incubated at 37 °C for 72 h. After incubation, AlamarBlue (00–025, DAL1025; Thermo Fisher Scientific Inc., Waltham, USA) was added 10 μL per well. After incubation for 4 h, using a fluorescence plate reader (Thermo Fisher Scientific Inc., Waltham, USA), fluorescence was measured and cell viability was determined.

Cytotoxicity test, FMCA = assay type: cell-based, human; conditions: human, HEK293 cells, FMCA, read-out: IC50 cytotoxicity 293
Description: (§1) The medium was exchanged to fresh medium with different concentrations of compound and cells were incubated for 72 h.

HEK293 cells = experiment: Cytotoxicity test, FMCA; assay type: cell-based, human; conditions: 72 h
Description: as §1

HES1 = experiment: Western blot in assay cells; assay type: cell-based; conditions: LS174T Notch cells, 12 h
Description: (§2) After another 12 h incubation with 50 ng/mL Dox, and cells were washed with PBS. Medium was changed to fresh medium with 2 and incubated for 12 h. […] (C–F) Relative protein levels analyzed by densitometry. […] P values were analyzed by Student’s t test.
(§3) Before another 12 h incubation, 50 ng/mL of doxycycline was added into each dish. Then, medium was changed to fresh medium with each compound. After 12 h incubation, cells were washed with PBS (500 μL) twice and then cells were collected by scraping. Using lysis buffer (20 mM Tris-HCl pH 7.4, 150 mM NaCl, 0.5% sodium deoxycholate, 10 mM EDTA, 1 mM sodium orthovanadate, and 0.1 mM NaF) containing a 1% […] inhibiotor cocktail (Nacalai Tesque, Tokyo, Japan), protein lysate was prepared. Protein lysates were separated by a 7.5%, 10%, 12.5% and 15% SDS-PAGE electrophoresis. Proteins were then transferred to a PVDF membrane (Bio-Rad Laboratories, Inc. Hercules, USA) electrophoretically. The membrane was incubated for 1 h with TBST (10 mM Tris-HCl pH 7.4, 100 mM NaCl and 0.1% Tween 20) containing 5% skimmed milk. […]

HES5 = experiment: Western blot in assay cells; assay type: cell-based; conditions: LS174T Notch cells, 12 h
Description: as §2, §3

NICD = experiment: Western blot in assay cells; assay type: cell-based, mouse; conditions: LS174T Notch cells, 12 h
Description: as §2, §3

Notch1(1704–2531) = experiment: Western blot in assay cells; assay type: cell-based, mouse; conditions: LS174T Notch cells, 12 h
Description: as §2, §3

APH-1 = experiment: Western blot in HPB-ALL cells; assay type: cell-based, human; conditions: 72 h
Description: (§4) (A) Schematic representation of γ-secretase complex. γ-Secretase is composed of four membrane proteins: presenilin1 (PS1), nicastrin (NCT), anterior pharynx defective 1 (APH-1) and presenilin enhancer 2 (PEN-2). […] (E,F) Relative protein levels of nicastrin mature and immature analyzed by densitometry. […] P values were analyzed by Student’s t test.
(§5) Media also contained different concentrations of compound. Cells were incubated at 37 °C for 72 h (12 h, when treatment with MG132). After incubation, cells were centrifuged and collected, and then washed with 500 μL of PBS twice. To prepare cell lysate and confirm protein expression levels, the same method as described above was used.

PEN-2 = experiment: Western blot in HPB-ALL cells; assay type: cell-based, human; conditions: 72 h
Description: as §4, §5

PS1 = experiment: Western blot in HPB-ALL cells; assay type: cell-based, human; conditions: 72 h
Description: as §4, §5

COc1c(O)cc2oc3cc(O)c(CC=C(C)C)c(O)c3c(=O)c2c1C/C=C(\C)CCC=C(C)C [Compound 2, cowanin]
IC50 at 72 h [1]: 7.5 µM | viability at 12 h, 15 µM [1]: 98% | IC50 at 72 h (Cytotoxicity test, FMCA): 15.1 µM | viability of normal human embryonic kidney 293 cells (HEK293 cells; 10 μM): not affected | cytotoxicity on 293 cells (HEK293 cells; 20 μM): cytotoxicity was detected | expression of HES1 (HES1): reduced | expression of HES5 (HES5): reduced | NICD level (NICD): reduced dose dependently | expression of Notch1(1704–2531) (Notch1(1704–2531)): increased | expression of APH-1 (APH-1): didn’t affect | expression of PEN-2 (PEN-2): didn’t affect | expression of PS1 (PS1): didn’t affect
